{"source": "patent US20210346279A1", "about": "“COMPOSITIONS COMPRISING TAPINAROF FOR THE TREATMENT OF PRURITIS” (Sol-Gel Technologies Ltd., priority 2020, published 2021)", "test_system": "C57/b16 mice", "assay": "acetone-ether-water (AEW) induced pruritus in a mouse model, spontaneous scratching recorded for 60 min", "format": "in vivo", "description": "The objective of this study was to examine the efficacy of topical formulations of Tapinarof in the strength of 0.5%, 1% and 2% as a treatment in acetone-ether-water (AEW) induced pruritus in a mouse model.\nThe model of inducing itching sensation was done by treating C57/b16 mice with AEW as was conducted in other studies in the past.\nThe mice were shaved 24 h prior to study to expose the skin. For 5 days, twice a day (at least 3-4 hours apart), mice were applied acetone and ether (mixed at 1:1 ratio) on the right cheek for 30 seconds, and immediately afterwards applied on cheek water for 30 seconds.\nDay 1-3: AEW was treated twice (at least 3-4 hours apart), AE 30s, Water 30s.\nDay 4-5: AEW was treated twice (at least 3-4 hours apart), AE 30s, Water 30s, topical administration of vehicle, tapinarof 0.5%, tapinarof 1%, tapinarof 2% (−20 h before evaluation) and randomization.\nDay 5: AEW was treated once, topical administration of vehicle, tapinarof 0.5%, tapinarof 1%, and tapinarof 2% (−2 h before evaluation), positive control dosing (−30 min), video record (evaluation), animal weighing, sacrificing, plasma collection and skin sample collection.\nImmediately after AEW application on day 5, the mice were put into acrylic chambers and behavior was recorded for 60 min using a video camera under unmanned conditions to assess spontaneous scratching. Videos were manually scored for time spent spontaneously scratching the affected cheek. Scratching is defined as an episode in which the mouse lifted its paw and scratched continuously for any length of time until the paw returned to the floor. Only scratches of the affected cheek with their hind paws were counted. Other scratching behaviors were disregarded. The number of scratches was summarized for each animal and the average number per group was calculated. In addition, the scratching time (seconds) was also evaluated, and the average of scratching time was calculated. Data are expressed as the mean±S.E.M. statistically significant differences between two groups were evaluated using paired or non-paired Student's t-test as required."}
{"smiles": "CC(C)c1c(O)cc(/C=C/c2ccccc2)cc1O", "note": "[tapinarof]", "values": [{"measurement": "effect on scratching compared with the positive control", "setting": "topical formulation 0.5% w/w", "value": "comparable to the positive control"}, {"measurement": "effect over the vehicle (scratching sessions and periods)", "setting": "topical formulation 0.5% w/w, applied -20 h and -2 h before evaluation", "value": "~40", "unit": "%"}, {"measurement": "effect on scratching sessions and periods", "setting": "topical formulation 1% w/w (percent increased twice versus 0.5%)", "value": "did not reduce the scratching sessions and periods"}, {"measurement": "effect on scratching sessions and periods", "setting": "topical formulation 2% w/w (percent increased four times versus 0.5%)", "value": "did not reduce the scratching sessions and periods"}]}
